From patent US9201014B2, “Development of photostable near-IR cyanine dyes for in vivo imaging” (National University of Singapore, priority 2010, dated 2015)

Assays:
[1] = Characterization of the CyNAMLA library (absorbance maximum wavelengths); format: physicochemical; conditions: absorbance maximum wavelength of CyNAMLA library compounds
Description: The amine group of 21 was protected using di-tert-butyl dicarbonate then derivatized with 80 different primary amines (for structures, see FIGS. 14A-14D). After acetylation of the newly-introduced amine, the compounds were treated with a solution of TFA-DCM (1:9) to remove the tert-butylcarbamate protecting group. The deprotected amine was then coupled to lipoic acid to yield CyNAMLA derivatives with an average purity of 90% (for HPLC-determined purities, see Table 6).

[2] = Primary screen of SERS intensities of CyNAMLA-functionalized AuNPs (compact Raman scanner); format: physicochemical; conditions: SERS spectra of CyNAMLA-functionalized AuNPs; excitation at 785 nm, laser power 60 mW
Description: FIG. 15 is a graph of the comparative surface-enhanced Raman spectroscopy (SERS) intensities of members of the CyNAMLA library measured with an excitation wavelength of 785 nm and a laser power of 60 mW in a compact Raman scanner.
The CyNAMLA compounds were adsorbed onto AuNPs having a diameter of approximately 60 nm, and the SERS properties of the resulting CyNAMLA-functionalized AuNPs were evaluated using a compact Raman scanner. Among metal nanoparticles, AuNPs are particularly suitable for in vivo applications due to their low toxicity, adaptability to bioconjugation, and reproducible signal intensity and quantification.

Row | SMILES | λabs (max) [1] [nm] | Raman intensity [2]
1 | CCCN1/C(=C/C=C2\CCCC(/C=C/C3=[N+](CCCNC(=O)CCCCC4CCSS4)c4ccccc4C3(C)C)=C2N(CCCOC(C)C)C(C)=O)C(C)(C)c2ccccc21.O=C([O-])C(F)(F)F (stereo not drawn) [CyNAMLA-274] | 806 | 6417
2 | CCCN1/C(=C/C=C2\CCCC(/C=C/C3=[N+](CCCNC(=O)CCCCC4CCSS4)c4ccccc4C3(C)C)=C2N(CCCN(C)C)C(C)=O)C(C)(C)c2ccccc21.O=C([O-])C(F)(F)F (stereo not drawn) [CyNAMLA-427] | 805 | 1735
3 | CCCN1/C(=C/C=C2\CCCC(/C=C/C3=[N+](CCCNC(=O)CCCCC4CCSS4)c4ccccc4C3(C)C)=C2N(CC(C)CC)C(C)=O)C(C)(C)c2ccccc21.O=C([O-])C(F)(F)F (stereo not drawn) [CyNAMLA-574] | 804 | 1763
4 | CCCN1/C(=C/C=C2\CCCC(/C=C/C3=[N+](CCCNC(=O)CCCCC4CCSS4)c4ccccc4C3(C)C)=C2N(Cc2ccc(F)cc2)C(C)=O)C(C)(C)c2ccccc21.O=C([O-])C(F)(F)F (stereo not drawn) [CyNAMLA-218] | 804 | 1922
5 | CCCC(C)N(C(C)=O)C1=C(/C=C/C2=[N+](CCCNC(=O)CCCCC3CCSS3)c3ccccc3C2(C)C)CCC/C1=C\C=C1\N(CCC)c2ccccc2C1(C)C.O=C([O-])C(F)(F)F (stereo not drawn) [CyNAMLA-185] | 805 | 4603
6 | CCCN1/C(=C/C=C2\CCCC(/C=C/C3=[N+](CCCNC(=O)CCCCC4CCSS4)c4ccccc4C3(C)C)=C2N(Cc2ccc3c(c2)OCO3)C(C)=O)C(C)(C)c2ccccc21.O=C([O-])C(F)(F)F (stereo not drawn) [CyNAMLA-49] | 806 | 2271
7 | CCCN1/C(=C/C=C2\CCCC(/C=C/C3=[N+](CCCNC(=O)CCCCC4CCSS4)c4ccccc4C3(C)C)=C2N(CCc2ccccc2F)C(C)=O)C(C)(C)c2ccccc21.O=C([O-])C(F)(F)F (stereo not drawn) [CyNAMLA-477] | 804 | 9679
8 | CCCN1/C(=C/C=C2\CCCC(/C=C/C3=[N+](CCCNC(=O)CCCCC4CCSS4)c4ccccc4C3(C)C)=C2N(Cc2ccc(OC)c(OC)c2)C(C)=O)C(C)(C)c2ccccc21.O=C([O-])C(F)(F)F (stereo not drawn) [CyNAMLA-319] | 805 | 2850
9 | CCCN1/C(=C/C=C2\CCCC(/C=C/C3=[N+](CCCNC(=O)CCCCC4CCSS4)c4ccccc4C3(C)C)=C2N(CCc2ccc(Cl)cc2Cl)C(C)=O)C(C)(C)c2ccccc21.O=C([O-])C(F)(F)F (stereo not drawn) [CyNAMLA-686] | 806 | 8146
10 | CCCN1/C(=C/C=C2\CCCC(/C=C/C3=[N+](CCCNC(=O)CCCCC4CCSS4)c4ccccc4C3(C)C)=C2N(Cc2cccc(OC)c2)C(C)=O)C(C)(C)c2ccccc21.O=C([O-])C(F)(F)F (stereo not drawn) [CyNAMLA-387] | 804 | 3910
11 | CCCN1/C(=C/C=C2\CCCC(/C=C/C3=[N+](CCCNC(=O)CCCCC4CCSS4)c4ccccc4C3(C)C)=C2N(Cc2ccc(Cl)cc2Cl)C(C)=O)C(C)(C)c2ccccc21.O=C([O-])C(F)(F)F (stereo not drawn) [CyNAMLA-531] | 805 | 5272
12 | CCCN1/C(=C/C=C2\CCCC(/C=C/C3=[N+](CCCNC(=O)CCCCC4CCSS4)c4ccccc4C3(C)C)=C2N(Cc2c(OC)cc(OC)cc2OC)C(C)=O)C(C)(C)c2ccccc21.O=C([O-])C(F)(F)F (stereo not drawn) [CyNAMLA-336] | 805 | 2548
13 | CCCN1/C(=C/C=C2\CCCC(/C=C/C3=[N+](CCCNC(=O)CCCCC4CCSS4)c4ccccc4C3(C)C)=C2N(Cc2ccc(OC)cc2OC)C(C)=O)C(C)(C)c2ccccc21.O=C([O-])C(F)(F)F (stereo not drawn) [CyNAMLA-358] | 804 | 1121
14 | CCCN1/C(=C/C=C2\CCCC(/C=C/C3=[N+](CCCNC(=O)CCCCC4CCSS4)c4ccccc4C3(C)C)=C2N(C(C)=O)C2CCCC2)C(C)(C)c2ccccc21.O=C([O-])C(F)(F)F (stereo not drawn) [CyNAMLA-180] | 804 | 8236
15 | CCCCCCCCCCN(C(C)=O)C1=C(/C=C/C2=[N+](CCCNC(=O)CCCCC3CCSS3)c3ccccc3C2(C)C)CCC/C1=C\C=C1\N(CCC)c2ccccc2C1(C)C.O=C([O-])C(F)(F)F (stereo not drawn) [CyNAMLA-407] | 806 | 3000

Continued, values first:

Row | λabs (max) [1] [nm] | Raman intensity [2] | SMILES
16 | 804 | 2487 | CCCCN(C(C)=O)C1=C(/C=C/C2=[N+](CCCNC(=O)CCCCC3CCSS3)c3ccccc3C2(C)C)CCC/C1=C\C=C1\N(CCC)c2ccccc2C1(C)C.O=C([O-])C(F)(F)F (stereo not drawn) [CyNAMLA-373]
17 | 805 | 2397 | CCCN1/C(=C/C=C2\CCCC(/C=C/C3=[N+](CCCNC(=O)CCCCC4CCSS4)c4ccccc4C3(C)C)=C2N(C(C)=O)C2CCN(Cc3ccccc3)CC2)C(C)(C)c2ccccc21.O=C([O-])C(F)(F)F (stereo not drawn) [CyNAMLA-107]
18 | 806 | 2333 | CCCN1/C(=C/C=C2\CCCC(/C=C/C3=[N+](CCCNC(=O)CCCCC4CCSS4)c4ccccc4C3(C)C)=C2N(Cc2cc(OC)c(OC)c(OC)c2)C(C)=O)C(C)(C)c2ccccc21.O=C([O-])C(F)(F)F (stereo not drawn) [CyNAMLA-356]
19 | 805 | 1876 | CCCN1/C(=C/C=C2\CCCC(/C=C/C3=[N+](CCCNC(=O)CCCCC4CCSS4)c4ccccc4C3(C)C)=C2N(CCc2ccc(OC)cc2)C(C)=O)C(C)(C)c2ccccc21.O=C([O-])C(F)(F)F (stereo not drawn) [CyNAMLA-395]
20 | 806 | 3013 | CCCN1/C(=C/C=C2\CCCC(/C=C/C3=[N+](CCCNC(=O)CCCCC4CCSS4)c4ccccc4C3(C)C)=C2N(CCc2ccc(OC)c(OC)c2)C(C)=O)C(C)(C)c2ccccc21.O=C([O-])C(F)(F)F (stereo not drawn) [CyNAMLA-266]
21 | 805 | 2629 | CCCN1/C(=C/C=C2\CCCC(/C=C/C3=[N+](CCCNC(=O)CCCCC4CCSS4)c4ccccc4C3(C)C)=C2N(Cc2cccc(C)c2)C(C)=O)C(C)(C)c2ccccc21.O=C([O-])C(F)(F)F (stereo not drawn) [CyNAMLA-398]
22 | 806 | 6424 | CCCN1/C(=C/C=C2\CCCC(/C=C/C3=[N+](CCCNC(=O)CCCCC4CCSS4)c4ccccc4C3(C)C)=C2N(Cc2ccccc2OCC)C(C)=O)C(C)(C)c2ccccc21.O=C([O-])C(F)(F)F (stereo not drawn) [CyNAMLA-103]
23 | 804 | 2920 | CCCN1/C(=C/C=C2\CCCC(/C=C/C3=[N+](CCCNC(=O)CCCCC4CCSS4)c4ccccc4C3(C)C)=C2N(Cc2ccccn2)C(C)=O)C(C)(C)c2ccccc21.O=C([O-])C(F)(F)F (stereo not drawn) [CyNAMLA-401]
24 | 804 | 7947 | CCCN1/C(=C/C=C2\CCCC(/C=C/C3=[N+](CCCNC(=O)CCCCC4CCSS4)c4ccccc4C3(C)C)=C2N(CC2CCCCC2)C(C)=O)C(C)(C)c2ccccc21.O=C([O-])C(F)(F)F (stereo not drawn) [CyNAMLA-382]
25 | 805 | 2455 | CCCN1/C(=C/C=C2\CCCC(/C=C/C3=[N+](CCCNC(=O)CCCCC4CCSS4)c4ccccc4C3(C)C)=C2N(CCc2ccc(Cl)cc2)C(C)=O)C(C)(C)c2ccccc21.O=C([O-])C(F)(F)F (stereo not drawn) [CyNAMLA-677]
26 | 805 | 14019 | CCCN1/C(=C/C=C2\CCCC(/C=C/C3=[N+](CCCNC(=O)CCCCC4CCSS4)c4ccccc4C3(C)C)=C2N(Cc2ccc(Cl)c(Cl)c2)C(C)=O)C(C)(C)c2ccccc21.O=C([O-])C(F)(F)F (stereo not drawn) [CyNAMLA-565]
27 | 805 | 1125 | CCCCCCCCCCCCCN(C(C)=O)C1=C(/C=C/C2=[N+](CCCNC(=O)CCCCC3CCSS3)c3ccccc3C2(C)C)CCC/C1=C\C=C1\N(CCC)c2ccccc2C1(C)C.O=C([O-])C(F)(F)F (stereo not drawn) [CyNAMLA-55]
28 | 803 | 2102 | CCCN1/C(=C/C=C2\CCCC(/C=C/C3=[N+](CCCNC(=O)CCCCC4CCSS4)c4ccccc4C3(C)C)=C2N(Cc2ccccc2C)C(C)=O)C(C)(C)c2ccccc21.O=C([O-])C(F)(F)F (stereo not drawn) [CyNAMLA-101]
29 | 803 | 24133 | CCCN1/C(=C/C=C2\CCCC(/C=C/C3=[N+](CCCNC(=O)CCCCC4CCSS4)c4ccccc4C3(C)C)=C2N(CCc2cccc(OC)c2OC)C(C)=O)C(C)(C)c2ccccc21.O=C([O-])C(F)(F)F (stereo not drawn) [CyNAMLA-184]
30 | 805 | 1986 | CCCN1/C(=C/C=C2\CCCC(/C=C/C3=[N+](CCCNC(=O)CCCCC4CCSS4)c4ccccc4C3(C)C)=C2N(CCN2CCCCC2)C(C)=O)C(C)(C)c2ccccc21.O=C([O-])C(F)(F)F (stereo not drawn) [CyNAMLA-272]
31 | 804 | 11616 | CCCN1/C(=C/C=C2\CCCC(/C=C/C3=[N+](CCCNC(=O)CCCCC4CCSS4)c4ccccc4C3(C)C)=C2N(CCc2ccccc2-c2ccccc2)C(C)=O)C(C)(C)c2ccccc21.O=C([O-])C(F)(F)F (stereo not drawn) [CyNAMLA-599]
32 | 804 | 2109 | CCCN1/C(=C/C=C2\CCCC(/C=C/C3=[N+](CCCNC(=O)CCCCC4CCSS4)c4ccccc4C3(C)C)=C2N(Cc2ccc(OC)cc2OC)C(C)=O)C(C)(C)c2ccccc21.O=C([O-])C(F)(F)F (stereo not drawn) [CyNAMLA-181]
33 | 804 | 4341 | CCCCC(CC)CN(C(C)=O)C1=C(/C=C/C2=[N+](CCCNC(=O)CCCCC3CCSS3)c3ccccc3C2(C)C)CCC/C1=C\C=C1\N(CCC)c2ccccc2C1(C)C.O=C([O-])C(F)(F)F (stereo not drawn) [CyNAMLA-230]
